Read-outs that look alike come from different tables or passages of the source.
Legend:
[1] = biological target: T1, Menin-MLL binding (His-Menin1-615 and MLL1-172-FLAG) (Homo sapiens, UniProt O00255); test: Test 1: inhibition of the menin-MLL binding (HTRF); details: for IC50: His-Menin1-615 30 nmol/L, MLL1-172-FLAG 50 nmol/L
T1 construct: Menin1-615 wherein 6× His tag and HA tag are inserted in the N-terminus; HA (N); myc (C)
T1 sequence (O00255 1-615 isoform O00255-1): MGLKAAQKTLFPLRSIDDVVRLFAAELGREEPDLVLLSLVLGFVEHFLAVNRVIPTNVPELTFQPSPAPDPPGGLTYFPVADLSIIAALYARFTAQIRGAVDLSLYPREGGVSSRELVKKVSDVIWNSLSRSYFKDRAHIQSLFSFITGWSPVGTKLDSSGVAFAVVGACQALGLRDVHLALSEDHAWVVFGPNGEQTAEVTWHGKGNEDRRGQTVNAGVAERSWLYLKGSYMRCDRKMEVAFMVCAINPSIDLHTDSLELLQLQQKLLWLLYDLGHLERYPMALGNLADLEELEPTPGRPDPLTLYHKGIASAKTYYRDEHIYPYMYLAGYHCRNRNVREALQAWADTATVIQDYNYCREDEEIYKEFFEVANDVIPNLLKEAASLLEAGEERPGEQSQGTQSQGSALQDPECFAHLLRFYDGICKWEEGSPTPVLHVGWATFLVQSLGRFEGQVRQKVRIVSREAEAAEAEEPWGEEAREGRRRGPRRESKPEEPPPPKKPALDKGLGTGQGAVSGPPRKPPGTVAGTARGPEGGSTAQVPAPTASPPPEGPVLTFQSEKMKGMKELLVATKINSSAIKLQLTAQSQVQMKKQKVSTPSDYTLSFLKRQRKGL
Protocol: Test 1: Test for Evaluating the Inhibition of the Menin-MLL Binding
Menin1-615 wherein 6× His tag and HA tag are inserted in the N-terminus, and myc tag is inserted in the C-terminus (hereinafter, referred to as His-Menin1-615), was diluted with an assay buffer (25 mmol/L HEPES, 150 mmol/L NaCl, 1 mmol/L dithiothreitol, 0.5% (w/v) Tween 80, 0.3% (w/v) BSA, 0.3% (w/v) skim milk) to adjust the final concentration to 30 nmol/L. The test compounds were also diluted with the assay buffer to adjust each concentration of the test compounds to 0.005 to 5 μmol/L. The prepared His-Menin1-615 and test compounds were added to a light-shielding 384-well low-volume plate (Corning, #4514) in 2 μL/well and […], respectively, and the plate was covered with a lid for light-shielding (Corning, #3935), and incubated at room temperature for 3 hours. After the incubation, MLL1-172 wherein FLAG tag is inserted in the C-terminus (MLL1-172-FLAG), was separately diluted with the assay buffer to adjust the final concentration to 50 nmol/L. The prepared MLL1-172-FLAG was added to the above plate in 2 μL/well, and the plate was covered with a lid for light-shielding and incubated at room temperature for an hour.
Then, anti-6HIS-d2 antibody (cisbio, 61HISDLA) and anti-FLAGM2-K antibody (cisbio, 61FG2KLA) were diluted with an antibody dilution buffer (50 mmol/L Tris, 150 mmol/L NaCl, 800 mmol/L KF, pH 7.4) to adjust the final concentration to 1.4 μg/mL to prepare an antibody mixture. The prepared antibody mixture was added to the above plate in 10 μL/well, and the plate was covered with a lid and incubated at 4° C. for 17 to 24 hours. After the incubation, the signal was detected with RUBYstar (BMG LABTECH).

[2] = tested on: RS4; 11 cells; test: Test 2: inhibition of cell proliferation, RS4;11; format: cell-based; details: for IC50: Homo sapiens, 168 h, RS4;11 cells, 7 days, PrestoBlue cell viability; for cell proliferation inhibition activity, good (in words) / cell proliferation inhibitory activity, potent (in words): summary of Test 2 table, RS4;11 and MOLM-13
Protocol: (§1) Test 2: Test for Evaluating the Inhibition of Cell Proliferation
(§2) RS4; 11 cells were obtained from American Type Culture Collection (ATCC). The cells were cultured at 37° C. in the presence of 5% CO2 in RPMI 1640 medium containing 10% fetal bovine serum and 1% penicillin/streptomycin. MOLM-13 cells were separately obtained from DSMZ (Deutsche Sammlung von Mikroorganismen und Zellkulturen GmbH). The cells were cultured at 37° C. in the presence of 5% CO2 in RPMI 1640 medium containing […] and 1% penicillin/streptomycin.
(§3) The cells were plated to a 96-well plate in 2000 cells/well, each test compound was added thereto to adjust the final concentration of DMSO to 0.1% of DMSO, and the cells were cultured for 7 days. After the cultivation, the cell viability was calculated with PrestoBlue™ Cell Viability Reagent (Invitrogen, A13261). The IC50 value was calculated from a survival curve, that corresponds to the concentration of the test compound at which the cell proliferation inhibition rate is 50%.

[3] = tested on: MOLM-13 cells; test: Test 2: inhibition of cell proliferation, MOLM-13; format: cell-based; details: Homo sapiens, 168 h, 7 days, PrestoBlue cell viability
Protocol: as §1, §2, §3

[4] = tested on: MEIS1; test: Test 3: inhibition of mRNA transcription, MEIS1 in MV4;11 cells; format: cell-based; details: for mRNA at 1 μM (% control) MEIS1: MV4;11 cells, 20 to 24 hours, fitted with GAPDH
Protocol: (§4) Test 3: Test for the Inhibition of mRNA Transcription with Test Compounds
(§5) MV4; 11 cells were obtained from American Type Culture Collection (ATCC). The cells were cultured at 37° C. in the presence of 5% CO2 in RPMI 1640 medium containing 10% fetal bovine serum and 1% penicillin/streptomycin. To the MV4; 11 cells was added each test compound to adjust the final concentration to 1 μmol/L, and the cells were cultured at 37° C. in the presence of 5% CO2 for 20 to 24 hours. After the incubation, the total RNA was extracted from the cells with RNeasy™ Mini Kit (QIAGEN, 74106), and CDNA was synthesized with Superscript™ VILO™ CDNA Synthesis Kit (Invitrogen, #11754250). By using TaqMan™ Gene Expression Master Mix (Applied Biosystems, 4369016) and TaqMan™ probe (Applied Biosystems), the expression level of mRNA was quantified from the obtained cDNA with 7900HT (Applied Biosystems). The mRNA expression level of each obtained gene was fitted with the expression level of mRNA of GAPDH.

[5] = tested on: HOXA9; test: Test 3: inhibition of mRNA transcription, HOXA9 in MV4;11 cells; format: cell-based; details: 20 to 24 hours, fitted with GAPDH
Protocol: as §4, §5

[6] = Test 4: pharmacokinetic study, oral, mouse; details: for AUC(0-t): male, NOD.CB17-Prkdcscid/J, plasma, po, 100 mg/kg; for compound-exposure in plasma (in words): summary of Test 4 table, oral 100 mg/kg
Protocol: Test 4: Pharmacokinetic Study
(§6) The test compound suspended in 0.5% methylcellulose was orally administered to 7-week-old male NOD. CB17-Prkdcscid/J mouse in a dose of 100 mg/kg. The blood sample was taken from jugular vein without anesthesia over time for 24 hours. The blood sample was centrifuged to obtain plasma. The plasma was pre-treated by methanol extraction method, and then analyzed with an LC-MS/MS to determine the concentration of the test compound. Based on the data from 0 hour after the administration until the time (t) when there was the final detection in the plasma, AUC was calculated by trapezoidal method.

[7] = mouse, in vivo, po, 100 mg/kg
Protocol: Test 4: Pharmacokinetic Study
as §6

IC50 [1] [nM] | IC50 [2] [nM] | IC50 [3] [nM] | AUC(0-t) [6] [ng·h/mL] | compound-exposure in plasma (in words) [6] | Structure (SMILES) | menin-MLL binding inhibition activity (in words) ([1]; summary of Test 1 table) | cell proliferation inhibition activity, good (in words) [2] | cell proliferation inhibitory activity, potent (in words) [2] | mRNA at 1 μM (% control) MEIS1 [4] [% control] | mRNA transcription inhibition activity (in words) ([4]; summary of Test 3 table, MEIS1 and HOXA9, MV4;11 cells, 1 μM) | mRNA at 1 μM (% control) HOXA9 [5] [% control] | AUC(0-t) [7] [ng·h/mL] | compound-exposure in plasma (in words) [7]
36.5 | 90 | 280 | 10300 | good compound-exposure in plasma | O=C([C@H]1N[C@H]2CC[C@@H]1C[C@@H]2CC1CC1)N1CC2(C1)CN(c1c(C(F)(F)F)cnc3sc(CC(F)(F)F)cc13)C2 [Example 1, [(1S,3S,4R,6S)-6-(Cyclopropylmethyl)-2-azabicyclo[2.2.2]octan-3-yl]{6-[2-(2,2,2-trifluoroethyl)-5-(trifluoromethyl)thieno[2,3-b]pyridin-4-yl]-2,6-diazaspiro[3.3]heptan-2-yl}methanone] | potent menin-MLL binding inhibition activity | good cell proliferation inhibition activity | potent cell proliferation inhibitory activity | 31.8 | mRNA transcription inhibition activity | 55.0 | – | –
7.3 | 60 | 90 | 8970 | good compound-exposure in plasma | N#Cc1cnc2sc(CC(F)(F)F)cc2c1N1CC2(CN(C(=O)[C@H]3N[C@H]4CC[C@@H]3[C@H](F)[C@@H]4CC3CC3)C2)C1 [Example 12, 4-{6-[(1S,3S,4S,5R,6R)-6-(cyclopropylmethyl)-5-fluoro-2-azabicyclo[2.2.2]octane-3-carbonyl]-2,6-diazaspiro[3.3]heptan-2-yl}-2-(2,2,2-trifluoroethyl)thieno[2,3-b]pyridine-5-carbonitrile] | – | – | – | 18.4 | – | 42.6 | – | –
– | – | – | – | – | [2H]C([2H])=C1C[C@@H]2CC[C@H]1[C@@H](C(=O)N1CCC3(CC1)CN(c1c(C#N)cnc4sc(CC(F)(F)F)cc14)C3)N2 [Example 24, 4-{7-[(1S,3S,4R)-5-(^2H2)methylidene-2-azabicyclo[2.2.2]octane-3-carbonyl]-2,7-diazaspiro[3.5]nonan-2-yl}-2-(2,2,2-trifluoroethyl)thieno[2,3-b]pyridine-5-carbonitrile] | – | good cell proliferation inhibition activity | potent cell proliferation inhibitory activity | – | – | – | 6970 | good compound-exposure in plasma
– | – | – | – | – | [2H]C([2H])=C1C[C@@H]2CC[C@H]1[C@@H](C(=O)N1CCC3(CC1)CN(c1c(C(F)(F)F)cnc4sc(CC(F)(F)F)cc14)C3)N2 [Example 21, [(1S,3S,4R)-5-(^2H2)methylidene-2-azabicyclo[2.2.2]octan-3-yl]{2-[2-(2,2,2-trifluoroethyl)-5-(trifluoromethyl)thieno[2,3-b]pyridin-4-yl]-2,7-diazaspiro[3.5]nonan-7-yl}methanone] | – | good cell proliferation inhibition activity | potent cell proliferation inhibitory activity | – | – | – | 24300 | good compound-exposure in plasma

Source: patent US12662494B2, “Optically active bridged piperidine derivative” (Sumitomo Pharma Co., Ltd., priority 2018, dated 2026)
